Laboratory results reported in patent US12667546B2, “Methods for manipulating cell state transitions in cancer” (AGENCY FOR SCIENCE, TECHNOLOGY AND RESEARCH, priority 2018, dated 2026).
“Also recorded” adds a separate entry of the source.

Columns and labels:
[1] = test system: NAMEC8-Ras, BC2.2 and BC22.1 tumors; assay: Xenograft treatment with oral bexarotene; format: in vivo, NSG mice
From the text: Primary human breast cancer samples were obtained from the National Cancer Centre Singapore (NCCS) with patients' consent and under an IRB approved protocol (2015/2976). All animal experiments were approved by the Agency for Science Technology and Research Singapore-Biological Resource Centre IACUC (Protocol number 171286). Patient-derived breast tumor fragments (approximately 3×1×1 mm) were inserted bilaterally into the inguinal mammary fat pads of 6-8 week-old NSG female mice for initial establishment of tumors, and subsequently expanded in NSG mice once established. In this study, established tumor fragments of BC2.2 were implanted into cohorts of 6-8 week-old female NSG mice. For BC22.1, 1×10^6 cells were injected subcutaneously into both flanks of NSG mice.
All animal experiments were approved by the Agency for Science Technology and Research Singapore-Biological Resource Centre IACUC (Protocol number 140940). For pre-treated SUM159 and MCF7-Ras cells, 1×10^6 cells were suspended in 100 μl media containing 50% matrigel and injected subcutaneously into both flanks of female NSG mice. The NSG mice were checked for tumor by palpation once a week and tumors were harvested when they reached ˜15 mm in diameter. For treatment in NSG mice, 1×10^5 NAMEC8-Ras cells were suspended in 100 μl media containing 50% matrigel and injected subcutaneously into both flanks of NSG mice. The NSG mice were checked for tumor formation by palpation and when tumors were about 3 mm, mice were randomized into two groups: vehicle (5% DMSO in corn oil) and treatment (Bexarotene, 100 mg/kg/day oral dosing). Tumor size was measured every week using Vernier calipers and mice were sacrificed when tumors reached ˜15 mm or after ˜4 weeks of treatment. For patient-derived cells, 2×10^6 cells were injected subcutaneously per site in NSG mice. […]
The tumor sections were fixed overnight in 4% paraformaldehyde, immersed in 70% ethanol, and sent to the Advanced Molecular Pathlogy Lab, IMCB for paraffinization. […] The fluorescence image analysis and the fluorescence overlay image were obtained with the Axio Vision Rel. […]

NAMEC8 = assay: Expression of EMT and lineage markers (qRT-PCR, immunoblot, immunofluorescence) in NAMEC8; format: cell-based, human
Protocol: Cells were rinsed twice in ice-cold PBS. Total RNA was extracted using Trizol (Invitrogen) and column-purified with RNeasy kits (Qiagen). cDNA synthesis was performed with 500 ng of total RNA at 37° C. for 2 h using the SuperScript III First-Strand Synthesis System (Thermo Fisher Scientific), and subsequently diluted 5-fold. mRNA levels were measured with gene-specific primers listed below using the ABI Prism 7900HT Sequence Detection System 2.2 (Applied Biosystems). Results were normalized to GAPDH and analyzed using SDS 2.2 software.
Cells were harvested and scraped from culture dishes in ice-cold PBS. They were then centrifuged at 12000 rpm for 5 min at 4° C. The pellets were then snap frozen in liquid nitrogen or lysed in ice-cold RIPA lysis buffer (Thermo Scientific) and left on ice for 30 min. Subsequently, the lysates were centrifuged at 12000 rpm for 10 min at 4° C. The supernatants were then aspirated and placed in fresh tubes. Protein concentrations were determined using Coomaisse Blue. 50-80 μg total protein was mixed with NuPAGE™ LDS sample buffer and heated at 70° C. for 10 min. Samples were loaded into NuPAGE™ 4-12% Bis-Tris gels (precast polyacrylamide gel; Invitrogen™). Gel electrophoresis was done at 200V for 1.5 h and then blotted onto nitrocellulose membranes (Trans-Blot Turbo™ transfer pack; Bio-Rad). The membranes were blocked with 5% skimmed milk in Tris-buffered saline (TBS; 1st BASE) with 0.1% Tween-20 (Santa Cruz), and then incubated with primary antibodies overnight at 4° C. Thereafter, the membranes were incubated with a horseradish peroxidase (HRP)-conjugated secondary antibody at room temperature for one hour. Finally, the immunoreactive proteins were visualized by using an enhanced chemiluminescent (ECL) reagent (Thermo Scientific, 34075) with the Chemidoc™ Imager (Bio-Rad, 17001401).
Cell cultures were fixed in 4% paraformaldehyde and permeabilized with 0.25% Triton X-100, followed by blocking with 1% bovine serum albumin in PBST. Cells were incubated in specific primary antibodies, followed by the appropriate secondary antibodies conjugated with Alexa Fluor-488 or -594 (Molecular Probes). Cell nuclei were then stained with DAPI and then viewed and imaged with an Axio Observer D1 epifluorescence microscope with a built-in AxioCamMR3 camera (Zeiss), using the optimal filters and 100-200× magnifications.

Structure (SMILES): C=C(c1ccc(C(=O)O)cc1)c1cc2c(cc1C)C(C)(C)CCC2(C)C [Bexarotene]
- tumor growth rate and burden ([1]; 100 mg/kg/day oral dosing vs vehicle): significant reductions in tumor growth rate and burden
- retinoid target gene expressions in tumors ([1]; STRA6, CRAPBP2, DHRS3, ANGPTL4, IP6K3, ACSL5): upregulated by at least two-fold
- EMT markers in tumor sections (immunofluorescence) ([1]; tumors from bexarotene-treated mice): expression of E-cadherin, and the loss of fibronectin
- MET phenotype: induction and durability after drug withdrawal (NAMEC8; drugs removed for at least seven days): gradually reverted to a more mesenchymal cell phenotype; also recorded: could cause an MET
- expression of EMT and basal/luminal markers (NAMEC8; transcript and protein): downregulation of mesenchymal signature markers (ZEB1, SERPINE1, FN1, SLUG) and the concomitant gain of epithelial marker CDH1
